Read-outs that look alike come from different tables or passages of the source.
Experiments:
[1] = Solubility of potassium salts in DME; details: mol fraction of salt
[2] = Ionic conductivity measurements; format: physicochemical
Procedure: Ionic Conductivity Measurements A homemade conductivity cell was constructed with two polished stainless steel parallel plates (˜0.3 cm^2) separated by ˜0.2 cm in a Teflon cup. The entire cell was placed in a sealed vial to minimize electrolyte evaporation. To calibrate the cell constant, two conductivity standards (Sigma Aldrich) were used, 25 and […]. The calibrated cell constant was calculated to be 0.706 cm′±0.008 cm^−1. […] […] The electrochemical impedance spectrum was collected from 1 MHz to 0.5 Hz with an AC amplitude of 10 mV. The electrolyte resistance was taken as the impedance where the phase angle is as close to […] as possible in order to minimize any contribution from capacitance or inductance. All conductivity measurements were performed in an argon filled glove box.

[3] = Cyclic voltammetry, oxidative stability window in diglyme
Procedure: The counter electrode was lithium metal. […] The scan rate for each CV measurement was 50 mV/s. The Al dissolution resistance was measured by cyclic voltammetry of a 2-electrode Li∥Al CR2032 coin cell. The potential was swept from 2 V to 6.1 V for a total of 5 cycles. The cell consisted of Li foil and aluminum foil (1.77 cm^2) separated by a 25 μm trilayer celgard membrane (polypropylene-polyethylene-polypropylene).
Since it has been reported that increasing the salt concentration also improves the electrochemical window,^103,107 the stability window of each electrolyte at its highest concentration was examined. In a 3-electrode cell using a platinum working electrode, Li metal counter and a silver wire reference to avoid electrolyte contamination, cyclic voltammetry was used to examine the oxidative window. Multiple scans were collected to see if there was any change with repeat cycling to highly positive voltages (FIG. 5). As a comparison, the most concentrated possible LiTFSI solution (0.2 mol fraction) was also tested.

[4] = Solubility of lithium salts in diglyme; format: physicochemical
From the text: In order to probe structure-property relationships among sulfonamide salts, the ionic conductivity was investigated in diglyme solvent and compared with that of LiTFSI. Ethers such as diglyme have strong Lewis basicity, high chemical stability and can dissolve lithium salts via Li+ cation coordination by the lone pair on the oxygen atom.^105 However, the solubility of LiTFSI is relativity low and cannot access the concentrated electrolyte regime. This is in stark contrast to all of the sulfonamide salts investigated here. The solubility of the salts increase in the order LiTFSI<LiMPSA<LiFBSA≈LiFPSA≈LiDESA. To the best of the inventors' knowledge, in ether solvent, these sulfonamide salts have the highest solubility among any lithium salt (0.4× salt, molar ratio diglyme: Salt […]). The ionic conductivity of these electrolytes were investigated as a function of concentration (FIG. 4). The sulfonamide based electrolytes span a much larger concentration range of up to 0.4 mol fraction, where LiTFSI can only be increased up to 0.2 mol fraction. […] This could be due to reduced viscosity of the electrolytes with fluorinated derivatives as well as the ability of the ether oxygen within LiMPSA and LiDESA to coordinate the lithium cation even at low concentrations in a similar fashion to that of diglyme solvent. […]

Which results are given for COCCC[N-]S(=O)(=O)C(F)(F)F.[K+] [KMPSA]?
solubility (mol fraction that can be reached) [1]: 0.6 X; ionic conductivity ([2]; 0.6× KMPSA/DME electrolyte, 25° C.): 0.037 mS/cm; ionic conductivity ([2]; molten salt, 45° C.): 0.003 mS/cm

With O=S(=O)([N-]S(=O)(=O)C(F)(F)F)C(F)(F)F.[K+] [KTFSI, potassium bis(trifluoromethanesulfonyl)imide, reference compound] as the molecule, how does the “solubility (mol fraction that can be reached)” value [1] read?
The value was about 0.34 X.

With O=S(=O)([N-]CC(F)(F)C(F)(F)F)C(F)(F)F.[Li+] [LiFPSA] as the molecule, how does the “oxidative stability window (in words)” value [3] read?
Its value is “smallest stability window”.

And the “ionic conductivity compared with salts with an incorporated ether group” value ([2]; in diglyme)?
Its value is “higher ionic conductivity”.

With COCCC[N-]S(=O)(=O)C(F)(F)F.[Li+] [LiMPSA] as the molecule, how does the “oxidative stability window (in words)” value [3] read?
The value was “one of the highest stabilities”.

What about the “potential out to which cycles after the first show high stability” value [3] of the same molecule?
The value was 6-7 V.

With O=S(=O)([N-]S(=O)(=O)C(F)(F)F)C(F)(F)F.[Li+] [LiTFSI, lithium bis(trifluoromethanesulfonyl)imide, reference compound] as the molecule, how does the “potential above which rapid decomposition occurs” value ([3]; 0.2 mol fraction in diglyme, Pt working electrode, 50 mV/s) read?
Its value is “above 5 V”.

And the “oxidative stability window (in words)” value ([3]; each electrolyte at its highest concentration in diglyme (LiTFSI 0.2, LiFPSA 0.4, LiDESA 0.4, LiMPSA 0.33 mol fraction))?
Its value is “one of the lowest stabilities”.

What about the “solubility (highest concentration reached)” value [4] of the same molecule?
Its value is “up to 0.2 mol fraction”.
